Measurements reported in patent US11016100B2, “Methods for identifying modulators of ion channels” (X-Body, Inc., priority 2007, dated 2021).

Tested on: parental CHO cells
Settings: parental CHO cells lacking hERG ion channels; potassium-free starvation buffer; FIG. 3
Method: This protocol employs potassium free starvation buffer to depolarize cells and thereby open ion channels such that screening ion channel modulators is possible. Colorimetric resonant reflectance biosensor plates were washed with 1×PBS for hydration baseline for 3 to 5 minutes. A PWV was determined for each of the wells. […] The plates were coated with 25.0 μl/well of fibronectin for 2 hrs at room temperature. The plates were blocked for 1 hour at room temperature or overnight at 4° C. by addition of 25.0 μl ovalbumin or BSA in PBS to the wells previously coated with fibronectin.
Starvation buffers were prepared with and without potassium. For 500.0 ml potassium-free starvation buffer the following reagents were used: 25 ml of 3M NaCl for 150 mM NaCl final; 10.0 ml for 20 mM HEPES; 1.0 ml for 2 mM calcium chloride; 0.5 ml for 2 mM magnesium chloride; 1.0 ml for 5 mM D-(+)-glucose; up to 500.0 ml with H2O HPLC. Potassium starvation buffer is prepared the same as above, but with 2 mM KCl added. […]
20.0 μl of potassium-containing starvation buffer was added to each well. […] The average number of cells/well was determined. […]
PWVs are taken for the biosensor plates for 3 to 5 minutes or until a stable read of less than 1-2 pm change/minute is attained. […]

In the case of `COc1cc(N)c(Cl)cc1C(=O)NC1CCN(CCCOc2ccc(F)cc2)CC1OC` (stereo not shown) [Cisapride monohydrate], the “effect of the inhibitors on cell swelling in parental CHO cells (PWV)” value is reported as “little to no effect”.
